The values that follow come from ChEMBL document CHEMBL1155939, “Baicalin, a prodrug able to reach the CNS, is a prolyl oligopeptidase inhibitor” (Bioorg Med Chem, 2008).

The experiment addresses T1, Prolyl endopeptidase (Homo sapiens, UniProt P48147).
T1 sequence (P48147 whole entry): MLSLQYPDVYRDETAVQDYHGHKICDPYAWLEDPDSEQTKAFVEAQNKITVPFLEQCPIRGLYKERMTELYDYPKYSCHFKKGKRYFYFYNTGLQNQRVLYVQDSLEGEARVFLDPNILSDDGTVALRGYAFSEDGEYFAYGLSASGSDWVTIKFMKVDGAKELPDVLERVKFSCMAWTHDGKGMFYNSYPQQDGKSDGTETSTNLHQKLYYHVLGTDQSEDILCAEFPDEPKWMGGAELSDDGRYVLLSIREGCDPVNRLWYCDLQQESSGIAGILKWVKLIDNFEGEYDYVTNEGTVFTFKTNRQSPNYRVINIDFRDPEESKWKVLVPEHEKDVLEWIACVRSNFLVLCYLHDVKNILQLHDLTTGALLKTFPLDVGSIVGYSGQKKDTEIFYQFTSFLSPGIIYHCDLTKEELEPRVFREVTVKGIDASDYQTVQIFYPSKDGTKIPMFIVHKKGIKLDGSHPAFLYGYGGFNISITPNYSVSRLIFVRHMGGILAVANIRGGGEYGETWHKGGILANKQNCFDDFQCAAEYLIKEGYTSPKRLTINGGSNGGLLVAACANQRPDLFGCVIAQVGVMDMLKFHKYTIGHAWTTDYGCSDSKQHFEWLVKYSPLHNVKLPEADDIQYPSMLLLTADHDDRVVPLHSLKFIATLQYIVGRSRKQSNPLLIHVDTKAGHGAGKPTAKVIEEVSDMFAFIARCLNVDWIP
The experiment can be described thus: Inhibition of human brain prolyl oligopeptidase expressed in Escherichia coli.

Usually IC50 stands for the concentration that inhibits the measured activity by half. `C[C@@H]1O[C@@H](OC[C@H]2O[C@@H](Oc3c(-c4ccc(O)c(O)c4)oc4cc(O)cc(O)c4c3=O)[C@H](O)[C@@H](O)[C@@H]2O)[C@H](O)[C@H](O)[C@H]1O` [RUTIN] came in with an IC50 of over 200 µM.
Turning to `O=c1c(O)c(-c2ccc(O)cc2)oc2cc(O)cc(O)c12` [KAEMPFEROL], the concentration for half-maximal inhibition (IC50) was over 200 µM.
In the case of `O=c1c(O)c(-c2ccccc2)oc2cc(O)ccc12` [3,7-DIHYDROXYFLAVONE], the 50% inhibitory concentration (IC50) is over 200 µM.
`O=c1c(O)c(-c2ccc(O)c(O)c2)oc2cc(O)cc(O)c12` [QUERCETIN] had a half-maximal inhibitory concentration (IC50) of 13 µM.
